Reference: patent US8158792B2, “Spiropiperidines for use as tryptase inhibitors” (Janssen Pharmaceutica N.V., priority 2007, dated 2012)

Biological target: human lung tryptase
Assay: β-Tryptase In-Vitro Enzyme Assay
Format: biochemical
Conditions: human lung tryptase 1 nM, substrate H-D-HHT-Ala-Arg-pNa 500 μM, pH 7.4, room temperature
Description: The β-tryptase assay was conducted with human lung tryptase (Cortex Biochem #CP3033) in an aqueous buffer (10 mM Tris, 10 mM Hepes, 150 mM NaCl, 0.1% PEG 8000, pH 7.4) using the chromogenic substrate H-D-HHT-Ala-Arg-pNa. […] Percent inhibition was calculated by comparing the initial reaction velocity of samples without inhibitor to those with inhibitor. The initial reaction velocities were analyzed using Microsoft Excel.

SMILES	IC50
NCc1ccc2c(c1)C1(CCN(C(=O)c3cncc(-c4cccs4)c3)CC1)CO2 [Cpd 143, 1-(5-thien-2-yl-pyridin-3-yl)carbonyl-5′-aminomethyl-spiro[piperidine-4,3′-(2H)-benzo[b]furan]]	0.056 µM
NCc1ccc2c(c1)C1(CCN(C(=O)c3cccc(Sc4ncc(Cl)cn4)c3)CC1)CO2 [Cpd 21, 1-[3-(5-chloro-pyrimidin-2-yl)thiophenyl]carbonyl-5′-aminomethyl-spiro[piperidine-4,3′-(2H)-benzo[b]furan]]	0.51 µM
Cc1nc2cc(C(=O)N3CCC4(CC3)COc3ccc(CN)cc34)ccc2n1-c1ccccc1 [Cpd 14, 1-(1-phenyl-2-methyl-benzoimidazol-5-yl)carbonyl-5′-aminomethyl-spiro[piperidine-4,3′-(2H)-benzo[b]furan]]	3.7 µM
NCc1ccc2c(c1)C1(CCN(C(=O)c3ccc(-c4ccc(Br)cc4)o3)CC1)CO2 [Cpd 140, 1-[5-(4-bromo-phenyl)-furan-2-yl]carbonyl-5′-aminomethyl-spiro[piperidine-4,3′-(2H)-benzo[b]furan]]	0.04 µM
NCc1ccc2c(c1)C1(CCN(C(=O)c3ccc(CSCc4ccccc4)o3)CC1)CO2 [Cpd 147, 1-[5-(benzylthiomethyl)-furan-2-yl]carbonyl-5′-aminomethyl-spiro[piperidine-4,3′-(2H)-benzo[b]furan]]	0.066 µM
NCc1ccc2c(c1)C1(CCN(C(=O)c3ccc4cc(Br)ccc4c3)CC1)CO2 [Cpd 126, 1-(6-bromo-naphthalen-2-yl)carbonyl-5′-aminomethyl-spiro[piperidine-4,3′-(2H)-benzo[b]furan]]	0.15 µM
NCc1ccc2c(c1)C1(CCN(C(=O)C=C3c4ccccc4-c4ccccc43)CC1)CO2 [Cpd 189, 1-(1-oxo-2-fluoren-9-ylidene-ethyl)-5′-aminomethyl-spiro[piperidine-4,3′-(2H)-benzo[b]furan]]	0.38 µM
NCc1ccc2c(c1)C1(CCN(C(=O)/C=C/c3cccc(OCCc4ccccc4)c3)CC1)CO2 [Cpd 294, (E)-1-(3-phenethoxy-phenylethenyl)carbonyl-5′-aminomethyl-spiro[piperidine-4,3′-(2H)-benzo[b]furan]]	0.097 µM
NCc1ccc2c(c1)C1(CCN(C(=O)c3ccc(NC(=O)Cn4cnc5ccccc54)cc3)CC1)CO2 [Cpd 9, 1-(4-benzoimidazol-1-ylmethylcarbonylamino-phenyl)carbonyl-5′-aminomethyl-spiro[piperidine-4,3′-(2H)-benzo[b]furan]]	3.3 µM
NCc1ccc2c(c1)C1(CCN(C(=O)c3ccc(CN4CCOCC4)o3)CC1)CO2 [Cpd 216, 1-(5-morpholin-4-ylmethyl-furan-2-yl)carbonyl-5′-aminomethyl-spiro[piperidine-4,3′-(2H)-benzo[b]furan]]	1.7 µM
Cc1ccc(-c2nc(C)c(C(=O)N3CCC4(CC3)COc3ccc(CN)cc34)s2)cc1 [Cpd 125, 1-[2-(4-methyl-phenyl)-4-methyl-thiazol-5-yl]carbonyl-5′-aminomethyl-spiro[piperidine-4,3′-(2H)-benzo[b]furan]]	7.5 µM
NCc1ccc2c(c1)C1(CCN(C(=O)c3ccc(-n4cc(-c5nc6ccccc6o5)cn4)cc3)CC1)CO2 [Cpd 17, 1-{4-[(4-benzoxazol-2-yl)-pyrazol-1-yl]-phenyl}carbonyl-5′-aminomethyl-spiro[piperidine-4,3′-(2H)-benzo[b]furan]]	0.29 µM
NCc1ccc2c(c1)C1(CCN(C(=O)/C=C/c3ccc(F)c(F)c3)CC1)CO2 [Cpd 111, (E)-1-(3,4-difluoro-phenylethenyl)carbonyl-5′-aminomethyl-spiro[piperidine-4,3′-(2H)-benzo[b]furan]]	0.19 µM
NCc1ccc2c(c1)C1(CCN(C(=O)c3cc(Br)c(Br)s3)CC1)CN2S(=O)(=O)O [Cpd 351, 1-(4,5-dibromo-thien-2-yl)carbonyl-1′-hydroxysulfonyl-5′-aminomethyl-spiro[piperidine-4,3′-(2H)-indole]]	0.068 µM
NCc1ccc2c(c1)C1(CCN(C(=O)c3ccc(-c4ccccc4)o3)CC1)CO2 [Cpd 130, 1-(5-phenyl-furan-2-yl)carbonyl-5′-aminomethyl-spiro[piperidine-4,3′-(2H)-benzo[b]furan]]	0.028 µM
NCc1ccc2c(c1)C1(CCN(C(=O)c3cncc(-c4ccccc4)c3)CC1)CO2 [Cpd 142, 1-(5-phenyl-pyridin-3-yl)carbonyl-5′-aminomethyl-spiro[piperidine-4,3′-(2H)-benzo[b]furan]]	0.65 µM
NCc1ccc2c(c1)C1(CCN(C(=O)c3ccc(Cc4ccccc4)cc3)CC1)CO2 [Cpd 75, 1-(4-benzyl-phenyl)carbonyl-5′-aminomethyl-spiro[piperidine-4,3′-(2H)-benzo[b]furan]]	0.47 µM
NCc1ccc2c(c1)C1(CCN(C(=O)/C(F)=C/c3ccccc3)CC1)CO2 [Cpd 162, (Z)-1-(1-fluoro-2-phenylethenyl)carbonyl-5′-aminomethyl-spiro[piperidine-4,3′-(2H)-benzo[b]furan]]	0.079 µM
NCc1ccc2c(c1)C1(CCN(C(=O)/C=C/c3ccccc3Cl)CC1)CO2 [Cpd 186, (E)-1-(2-chloro-phenylethenyl)carbonyl-5′-aminomethyl-spiro[piperidine-4,3′-(2H)-benzo[b]furan]]	0.053 µM

Continued, values first:

IC50	SMILES
0.35 µM	NCc1ccc2c(c1)C1(CCN(C(=O)Cc3ccc(Br)cc3)CC1)CO2 [Cpd 93, 1-(4-bromo-benzyl)carbonyl-5′-aminomethyl-spiro[piperidine-4,3′-(2H)-benzo[b]furan]]
0.44 µM	NCc1ccc2c(c1)C1(CCN(C(=O)c3cc4c(s3)CCCCC4)CC1)CO2 [Cpd 257, 1-(5,6,7,8-tetrahydro-4H-cyclohepta[b]thien-2-yl)carbonyl-5′-aminomethyl-spiro[piperidine-4,3′-(2H)-benzo[b]furan]]
0.036 µM	CSc1ccc(C(=O)N2CCC3(CC2)COc2ccc(CN)cc23)s1 [Cpd 247, 1-(5-methylthio-thien-2-yl)carbonyl-5′-aminomethyl-spiro[piperidine-4,3′-(2H)-benzo[b]furan]]
0.13 µM	NCc1ccc2c(c1)C1(CCN(C(=O)c3cccc(Br)c3)CC1)CO2 [Cpd 29, 1-(3-bromo-phenyl)carbonyl-5′-aminomethyl-spiro[piperidine-4,3′-(2H)-benzo[b]furan]]
0.18 µM	Cc1ccsc1/C=C/C(=O)N1CCC2(CC1)COc1ccc(CN)cc12 [Cpd 356, (E)-1-(3-methyl-thien-2-ylethenyl)carbonyl-5′-aminomethyl-spiro[piperidine-4,3′-(2H)-benzo[b]furan]]
0.48 µM	NCc1ccc2c(c1)C1(CCN(C(=O)Cc3ccc(Cl)cc3)CC1)CO2 [Cpd 91, 1-(4-chloro-benzyl)carbonyl-5′-aminomethyl-spiro[piperidine-4,3′-(2H)-benzo[b]furan]]
0.26 µM	Cc1cccc(/C=C/C(=O)N2CCC3(CC2)COc2ccc(CN)cc23)c1 [Cpd 179, (E)-1-(3-methyl-phenylethenyl)carbonyl-5′-aminomethyl-spiro[piperidine-4,3′-(2H)-benzo[b]furan]]
0.24 µM	COc1ccc(CC(=O)N2CCC3(CC2)COc2ccc(CN)cc23)cc1 [Cpd 94, 1-(4-methoxy-benzyl)carbonyl-5′-aminomethyl-spiro[piperidine-4,3′-(2H)-benzo[b]furan]]
6.4 µM	CC(C)(C)c1cccc(C(=O)N2CCC3(CC2)COc2ccc(CN)cc23)c1 [Cpd 274, 1-(3-tert-butyl-phenyl)carbonyl-5′-aminomethyl-spiro[piperidine-4,3′-(2H)-benzo[b]furan]]
